# Measured values from patent US12049475B2, “Bisphosphonate drug conjugates” (BRISE PHARMACEUTICALS CO., LTD., priority 2018, dated 2024).
# Entries after “also recorded” stand apart in the source; their conditions may differ.
# Legend:
# CED mice [1] = assay: CED mouse model: histology and immunofluorescence of tibia (HE, TRAP, Ocn, Osx, Col1, CD31/Emcn, LepR); format: in vivo; conditions: for number of Col1+ cells compared with Littermate group / number of Ocn+ cells compared with Littermate group / number of Osx+ cells compared with Littermate group: co-staining with Emcn; for LepR+pSmad2/3+ dual positive BMSC (immunofluorescence): tibia sections
# Experimental: (§1) Mice: According to Tang et al., Nat Med. 15:757-765 (2009), a mutation in the coding area of the TGF-β1 latency protein was generated in mice, and the active form of TGF-β1 was secreted by osteoblasts. […] All mice received the intraperitoneal injections once a week for 2 months, beginning at 1 month of age until sacrifice at 3 months of age. The tibias of the mice were collected and analyzed.
# (§2) Immunostaining was performed using a standard protocol.
# Immunofluorescence staining was performed using as described. […] Secondary antibodies conjugated with fluorescence were added, and slides were incubated at room temperature for 1 h while avoiding light. Sections were microphotographed to perform histomorphometric measurements (Olympus DP71). The quantitative histomorphometric analysis was conducted in a blinded fashion with OsteoMeasureXP Software (OsteoMetrics, Inc.). […]
# CED mice [2] = assay: CED mouse model, 8-week treatment: μCT of tibia and fracture incidence; conditions: for total BV/TV: among all groups; for bone fracture incidence: 100 μg/kg i.p. once a week, 2-month (8-week) treatment
# Experimental: All transgenic animals used in this study are as described in the Animals section. […] During cell counting, microCT analysis and histological staining analysis, all manual quantification is performed in a blind manner to eliminate observer bias. Animals were randomly assigned to groups for experiments in CED animal studies.
# as §1
# Microcomputed tomography analysis: Tibia collected from mice were dissected to remove soft tissue, fixed overnight in 70% ethanol, and analyzed with a high-resolution microcomputed tomography (μCT) imaging system (MicroCT40; Scanco Medical AG, Basserdorf, Switzerland). The scanner was set at a voltage of 55 kVp and a current of 109 μA. The resulting two-dimensional longitude-sectional images or three-dimensional whole-bone images are shown in gray scale. Three-dimensional structural parameters, total bone volume per tissue volume, cortical bone volume, cortical bone thickness, and cortical bone porosity were given.
# CED mice [3] = assay: CED mouse model: flow cytometry of tibia bone marrow cells; format: in vivo; conditions: for CD31+Emcn+ double positive cells (FACS of tibia bone marrow): 8-week treatment; for number of LepR+ cells in bone marrow (FACS): distal one-third of tibia, 2 months of treatment
# Experimental: Flow cytometry: Bone marrow cells in the distal one-third of tibia were collected from each group (n=6) after 2 months of conjugate treatment. Red blood cells were lysed in commercial ACK lysis buffer (Quality Biological, Inc., 118-156-101). After centrifugation (1,200 r.p.m. for 5 min at room temperature), cell pellets were resuspended and fixed in 4% PFA. Cells were then washed with 0.1% BSA in PBS and counted. One million cells per milliliter were permeabilized in 0.1% Triton X-100 before blocking in 3% FACS buffer (PBS, 3% FBS, and 0.1% NaN3 sodium azide) for 30 min on ice. Cells were incubated with endomucin antibody (Santa Cruz, sc-65495), Leptin Receptor (R&D, 1:100, AF497), or isotype control antibody for 1 h at 37° C. in a dark room and then washed twice with 0.1% BSA in PBS. After washing, cells were stained with APC-conjugated CD31 antibody (R&D Systems, FAB3628A) for 45 min. Cells were acquired immediately after washing with 3% FACS buffer. Probes were analyzed using a FACS Calibur flow cytometer and CellQuest software (Becton Dickinson).
# [4] = pharmaceutical data, cited from earlier work
# TGF-β1 signaling pathway = assay: CED mouse model: pSmad2/3 immunohistochemistry of tibia; format: in vivo, mice; conditions: 8-week treatment, compared with CED group and ALN group
# Experimental: as §1, §2
# Immunofluorescence staining was performed using as described. […] Secondary antibodies conjugated with fluorescence were added, and slides were incubated at room temperature for 1 h while avoiding light. Sections were microphotographed to perform histomorphometric measurements (Olympus DP71). The quantitative histomorphometric analysis was conducted in a blinded fashion with OsteoMeasureXP Software (OsteoMetrics, Inc.). The number of positively stained cells in the whole tibia subchondral bone area per specimen was counted in five sequential sections per mouse in each group.
# [5] = tested on: TGF-β1 signaling in tibias; assay: pSmad2/3 staining of tibias after intraperitoneal injection (bone delivery and release); conditions: 100 μg/kg intraperitoneal injection, compared with vehicle control
# Experimental: Histochemistry, immunohistochemistry, and immunofluorescence: At the time of euthanasia, tibias were collected and fixed in 10% buffered formalin for 48 h, decalcified in 10% EDTA (pH 7.4) for 14 d, and then embedded in paraffin. […] Immunostaining was performed using a standard protocol. Sections were incubated with primary antibodies to mouse pSmad2/3 (Santa Cruz Biotechnology Inc., 1:50, sc-11769) and osteocalcin (Takara Bio Inc., 1:200, M137) overnight at 4° C. For immunohistochemical staining, a liquid Diaminobenzidine (DAB)+Chromogen System (Dako, K3468) was used to detect immunoreactivity, followed by counterstaining with hematoxylin and eosin (Sigma-Aldrich, MHS16).
# Compound 1 was also tested for tissue distribution following intraperitoneal injection. […] It was then determined whether the conjugate delivered TβR1I (TGF-beta type 1 receptor inhibitor) specifically to bone and hydrolyzed over time (intraperitoneal injection, DMSO, 100 μg/kg of ALN, Inhibitor, or Conjugate).
# [6] = tested on: heart, liver, lung, and kidney; assay: HE and pSmad2/3 staining of heart, liver, kidney and lung; format: in vivo, mice; conditions: after conjugate administration
# Experimental: as §2
# wild-type mice = assay: 7-day survival of wild-type mice after conjugate injection; format: in vivo
# Experimental: FIG. 1 presents graphs showing that a conjugate of the present disclosure, Compound 1, delivers a TβR1I specifically to bone and releases it in a time-dependent manner. […] Part (C) presents quantification of the Western-blot band intensity in (B). Data are presented as relative level of p-SMAD2/SMAD2 ratio normalized to DMSO condition. […] Part (E) presents quantification data of pSmad2/3^+ cells in (D). […] Of 6 mice in the 5 mg/kg group, 2 died in 7 days. […] Part (H) presents quantification data of pSmad2/3^+ cells in (G). In FIG. 1, the following conventions are used: NS, not significant. **P<0.01, ****P<0.0001 determined by multifactorial ANOVA. All data are reported as the mean±s.d.
# [7] = tested on: TGF-β1 signaling (pSmad2/3) in BMSCs; assay: pSmad2/3 immunofluorescence staining of BMSCs exposed to TGF-β1; format: cell-based, mice; conditions: 10 μM for 1 h, 24 h, 48 h, then 5 ng/ml TGF-β1 for 30 min
# Experimental: (§3) Cell culture: HeLa cells and BMSCs from mice were cultured in Dulbecco's Modified Eagle's Medium (GIBCO) supplemented with 10% fetal bovine serum (FBS; Sigma), 100 units/ml penicillin, 100 μg/ml streptomycin (Sigma), and 2 mM glutamine and were incubated at 37° C. in a humidified chamber supplemented with 5% CO2. […] Cells were then exposed to 5 ng/ml of recombinant human TGF-β1 (R&D Systems) for 30 min and processed for cell staining and Western blotting.
# Cell staining: BMSCs were washed 3 times with PBS and fixed by 4% paraformaldehyde (PFA) for 30 min. Cells were then washed 3 times with PBS and incubated with 3% BSA, 0.1% Triton in PBS for 1 h. […] Secondary antibodies conjugated with fluorescence were added, and plates were incubated at room temperature for 1 h while avoiding light. Cells were counted under the microscope (Olympus DP71).
# [8] = tested on: TGF-β1 signaling (pSmad2) in HeLa cells; assay: Western blot of pSmad2 in HeLa cells exposed to TGF-β1; format: cell-based, human
# Experimental: as §3
# Western blot: HeLa cells were lysed with […] and […] (Roche), and mixed with an equal volume of 2×SDS-PAGE sample buffer with DTT. Samples were boiled and cleared by centrifuge, separated by SDS-PAGE, and transferred onto nitrocellulose (NC) membranes. Membranes were blocked with 5% non-fat dry milk and incubated with primary antibodies at 4° C. overnight. Primary antibodies include rabbit anti-Smad2 antibody (Cell Signaling Technology, 3122, 1:1,000) and rabbit anti-Phospho-Smad2 (Ser465/467) antibody (Cell Signaling Technology, 3108, 1:1,000). HRP-conjugated goat anti-rabbit IgG (Santa Cruz Biotechnology, 2054, 1:5,000) was used as secondary antibody. Signals were detected with Super Signal West Dura Extended Duration Substrate (Thermo Scientific).
# bone metastasis = conditions: literature; cited from earlier work
# CED mice [9] = conditions: intraperitoneal injection; Nat Med. 15:757-765 (2009); cited from earlier work
smiles,measurement,setting,value
"NCCCC(O)(P(=O)(O)O)P(=O)(O)O [ALN, 4-amino-1-hydroxybutylidene-1,1-bisphosphonic acid monosodium trihydrate, reference compound]",CD31+Emcn+ vessel surfaces (immunofluorescence),CED mice [1]; 8-week treatment,highly increased
same,bone formation in diaphysis bone marrow (HE staining),"CED mice [1]; 8-week treatment, compared with Conjugate and Littermate group",aberrant bone formation was found
same,number of Col1+ cells compared with Littermate group,CED mice [1],significantly increased
same,number of Ocn+ cells compared with Littermate group,CED mice [1],significantly increased
same,number of Osx+ cells compared with Littermate group,CED mice [1],significantly increased
same,LepR+pSmad2/3+ dual positive BMSC (immunofluorescence),CED mice [1],significantly increased
same,bone porosity rate,"CED mice [2]; 100 μg/kg per week, 8 weeks",significantly increased
same,cortical bone thickness,"CED mice [2]; 100 μg/kg per week, 8 weeks",significantly increased
same,total cortical bone volume,"CED mice [2]; 100 μg/kg per week, 8 weeks",decreased
same,total BV/TV,"CED mice [2]; 100 μg/kg per week, 8 weeks",no significant difference
same,bone fracture incidence,CED mice [2]; CED mice,50%
same,CD31+Emcn+ double positive cells (FACS of tibia bone marrow),CED mice [3],highly increased
same,number of LepR+ cells in bone marrow (FACS),CED mice [3],significantly increased
same,time to reach bone,[4],less than 2 hours
same,fraction that reaches bone,[4]; the rest is excreted in urine,50-70%
"O=C(NCCCC(O)(P(=O)(O)O)P(=O)(O)O)OCCOc1ccc2c(-c3c(-c4ccccn4)nn4c3CCC4)ccnc2c1 [Compound 1, (1-hydroxy-4-(((2-((4-(2-(pyridin-2-yl)-5,6-dihydro-4H-pyrrolo[1,2-b]pyrazol-3-yl)quinolin-7-yl)oxy)ethoxy)carbonyl)amino)butane-1,1-diyl)bis(phosphonic acid)]",pSmad2/3 positive cells in tibia,TGF-β1 signaling pathway,significantly decreased
same,TGF-β1 signaling in tibias (pSmad2/3 staining),[5],significantly reduced; also recorded: inhibited in a time-dependent manner
same,"HE staining and pSmad2/3 staining of heart, liver, lung, and kidney",[6],normal tissue structures and TGF-β1 activation; also recorded: does not affect other organs
same,bone remodeling of CED mice,CED mice [1]; 2-month treatment,restored normal bone remodeling
same,CD31+Emcn+ vessel surfaces (immunofluorescence),CED mice [1]; 8-week treatment,rescued abnormal vessel formation
same,number of TRAP+ cells,"CED mice [1]; 8-week treatment, diaphysis",decreased
same,number of Ocn+ cells,"CED mice [1]; 8-week treatment, diaphysis, TRAP and Ocn co-staining",decreased
same,level of TGF-β1,CED mice [1]; CED mice,decreased
same,"number and distribution of Osx+, Col1α+, and Ocn+ cells",CED mice [1]; CED mice,rescued
same,type H vessels,CED mice [1]; CED mice,significantly decreased
same,number of Col1+ cells compared with Littermate group,CED mice [1],no significant difference
same,number of Ocn+ cells compared with Littermate group,CED mice [1],no significant difference
same,number of Osx+ cells compared with Littermate group,CED mice [1],no significant difference
same,LepR+pSmad2/3+ dual positive BMSC (immunofluorescence),CED mice [1],significantly decreased
same,cortical bone parameters compared with Littermate group,"CED mice [2]; 100 μg/kg per week, 8 weeks",no significant difference
same,total BV/TV,"CED mice [2]; 100 μg/kg per week, 8 weeks",no significant difference
same,bone morphology of tibia (μCT three-dimensional reconstruction),"CED mice [2]; 100 μg/kg per week, 8 weeks, compared with CED and ALN-treated mice",significantly improved
same,total BV/TV distribution,"CED mice [2]; 100 μg/kg per week, 8 weeks, tibia cross-sections",restored
same,bone parameters,CED mice [2]; 2-month treatment,restored bone parameters
same,side effects,CED mice [2]; CED mice,no obvious side effects
same,bone fracture incidence,CED mice [2]; CED mice,8.3%
same,dose that effectively attenuated CED progression,"CED mice [2]; CED mice, intraperitoneal",100 μg/kg per week
same,7-day survival,"wild-type mice; 50 μg/kg, one intraperitoneal injection per week, n=6",no mice death; also recorded: survived for 7 days
same,7-day survival,"wild-type mice; 100 μg/kg, one intraperitoneal injection per week, n=6",no mice death; also recorded: survived for 7 days
same,7-day survival,"wild-type mice; 1 mg/kg, one intraperitoneal injection per week, n=6",no mice death; also recorded: survived for 7 days
same,mice that died in 7 days (of 6),"wild-type mice; 5 mg/kg, one intraperitoneal injection per week",2
same,7-day survival,"wild-type mice; 10 mg/kg, one intraperitoneal injection per week",all died in 3 days
same,safe dose,"wild-type mice; intraperitoneal administration, wild-type mice",below 5 mg/kg per week
same,number of pSmad2/3-positive cells (immunofluorescence),[7],significantly reduced
same,CD31+Emcn+ double positive cells (FACS of tibia bone marrow),CED mice [3],significantly reduced
same,number of LepR+ cells in bone marrow (FACS),CED mice [3]; listed as conjugate,significantly decreased
same,expression level of pSmad2 (Western blot),"[8]; HeLa cells, 10 μM for 1 h, 24 h, 48 h, then 5 ng/ml TGF-β1 for 30 min",significantly reduced
same,start of TβR1I release in cells (after),[8]; Western blotting and immunofluorescence staining,≥ 24 h
"OCCOc1ccc2c(-c3c(-c4ccccn4)nn4c3CCC4)ccnc2c1 [Compound S-3, reference compound]",TGF-β1 signaling in tibias (pSmad2/3 staining),[5],did not inhibit TGF-β1 signaling; also recorded: did not show significant differences
c1ccc(-c2nn3c(c2-c2ccnc4cc(OCCN5CCOCC5)ccc24)CCC3)nc1 [LY2109761],bone metastasis in mice,bone metastasis,reduce a potential of bone metastasis
Cc1cccc(-c2[nH]c(C(C)(C)C)nc2-c2ccc3c(c2)OCO3)n1 [SB505124],bone remodeling defects in CED mice,CED mice [9],rescued bone remodeling defects
Fc1ccc(Cl)cc1-c1nc(Nc2ccncc2)c2nccnc2n1 [SD-208],bone metastasis in mice,bone metastasis,effective in treating mice with bone metastases
